Results published in article PMC11272821, “Mechanistic safety assessment via multi-omic characterisation of systemic pathway perturbations following in vivo MAT2A inhibition” (Archives of Toxicology, 2024).

What was measured:
[1] = test system: HCT116 MTAP KO cells; experiment: HCT116 cell SDMA assay, MTAP KO; assay type: cell-based
Source text: The structure and in vitro properties of the compound are shown in Table 1 together with potency in the HCT116 isogenic cell line (MTAP WT and KO) and in the MAT2A biochemical assay (SAM endpoint).

[2] = Plasma toxicokinetic analysis after twice daily oral dosing; assay type: in vivo; details: rat, n = 5
Method: All in vivo experimental procedures were conducted in accordance with United Kingdom legislation (Animals (Scientific Procedures) Act, 1986) and were compliant with the ARRIVE guidelines. 8–10 week old male (210–230 g) Crl:WI Han Wistar rats (Charles River Laboratories Ltd, UK) were acclimatised to the facility for 10 days and then randomised to groups based on bodyweight.
A whole blood sample (32 µL) was collected via a tail vein prick into a K2EDTA treated capillary tube, centrifuged at 1,500 g for 10 min at 4 °C, and plasma collected using a micropipette (non-EDTA Ref.no. 172292, Vitrex Medical A/S, Denmark). Samples were collected on Day 1 and Day 7 at 1 h, 2 h, 4 h, 8 h (pre-second dose), 10 h and 24 h post the first dose.
Calibration and quality control samples were prepared in rat plasma with a target concentration range for quantification of 0.1 – 100 µmol/L. Sample preparation: 8 µl of plasma were diluted in 92 µl of 5% (w/v) bovine serum albumin in phosphate buffer and gently shaken for 10 min before 5 min centrifugation at 2400 g at 4°C. 25 µL were transferred to new tubes and 150 µl of acetonitrile containing an internal standard were added for protein precipitation. After thorough mixing and centrifugation for 5 min at 2400 g and 4°C, 75 µl of supernatant were transferred into new tubes and diluted in 150 µL water/HCOOH (100:0.2, v/v) then thoroughly vortexed and again centrifuged for 5 min at 2400 g and 4°C. 1.5 µl of the supernatant were injected for LC-MS/MS analysis utilizing an Acquity UPLC BEH C18, 2.1x50 […], 1.7 µ column at 60° C. Mobile phase A: Acetonitrile/HCOOH (100/0.2, v/v) and B: water/HCCOH (100/0.2, v/v). Flow rate: 0.75 mL/min.

[3] = test system: methionine; experiment: Targeted LC–MS of methionine in plasma, liver, brain and heart; assay type: in vivo, rat; details: 30 mg/kg BID
Method: SAM and methionine levels were quantified in plasma samples and tissues using Ultra Performance Liquid Chromatography (UPLC) coupled with quantitative MS in ESI positive ion mode as described in Supplementary M&M.
For LCMS analysis, standard curves were spiked to give a calibrated range of 1.0 – 1000 nM for SAM and 1.0 – 2000 for methionine. 5 µL of standard spike solution was added to 45 µL of ACN/MeOH/H2O (40/40/20 v/v/v) and 2.5 µL of deuterated citrulline is added as an internal standard. A further calibration curve was prepared with 5 µL blank mouse plasma, 5 µL of standard and 40 µL of 40:40:20 Acetonitrile:Methanol:0.5% formic acid (Aq) with 2.5 µL of deuterated citrulline was used to investigate matrix suppression effects. Blank plasma was also diluted 1:10 with ACN/MeOH/H2O (40/40/20 v/v/v) and was also analysed to establish systemic biomarker levels.
Metabolomic sample preparation and analysis. Tissue samples (liver, brain, heart) were extracted with 1 mL of ACN/MeOH/H2O 40/40/20 v/v/v per 100 mg material in a PrecellysCK28K-2 mL tube. Tissues were homogenised/extracted in 3x20 sec shake at 5500 rpm and centrifuged for 5 min at 10,621g. After centrifugation a maximum of 800 µL clear supernatant was transferred to cryovials and the same amount of extraction solvent used in the first step was added to tissue precipitate. Extraction procedure was repeated as above and clear supernatants combined in the same cryovial and vial labelled as polar metabolite extract. On the remaining tissue pellet 1ml (per100mg tissue material) of Butanol/MeOH 3/1v/v was added and the above extraction sequence applied. Resulted clear supernatant transferred to a clean cryovial and labelled as lipid extract. All samples kept at the lowest available temperature (0 °C) throughout the extraction process and stored at -80 °C until further analysis.

[4] = test system: rat liver transcriptome; experiment: Liver transcriptomics; assay type: in vivo
Method: Total RNA was purified from liver samples with RNAdvance Tissue™ kit by Beckman Coulter Life Sciences according to manufacturer’s instructions. The method was carried out in an automated robotic solution with Biomek i7 Hybrid™. The concentration and quality of isolated RNA molecules were measured applying parallel capillary electrophoresis using Agilent Fragment Analyzer 5300 (DNF-471-33-SS Total RNA 15nt). The data were analysed in ProSize data analysis software to derive the concentration and RNA quality numbers (RQN) for individual samples.
The double-stranded cDNA obtained with Poly (A)-mRNA enrichment (500 ng total RNA input) was subjected to library preparation using KAPA Hyper Prep Kit (Kapa Biosystems, MA, USA) according to manufacturer’s protocol. The libraries were pooled in a single library and were sequenced on an Illumina NovaSeq6000 with a v1.5 SP 100 cycle kit as paired-end reads to PE51bp. The sequencing runs were carried out according to the manufacturer’s instructions.

[5] = test system: 86 targets; experiment: Secondary pharmacology profiling against 86 targets (Eurofins); details: BID dosing of 3, 10 or 30 mg/kg for 7 days
Method: (§1) Secondary pharmacology assays were performed at Eurofins using standard experimental techniques against a total of 86 targets across a broad pharmacological space. Assay details along with experimental protocols are described at https://www.eurofinsdiscoveryservices.com. […] Assays measuring substrate turnover or phosphorylation by isolated proteins were used for kinase and enzyme targets, allowing direct determination of the mode of action of the compounds. […] Assays were run in eight points concentration response mode with half log dilutions and IC50, EC50 or Ki (Cheng and Prusoff [1973]) values determined.

[6] = target: T1, Adenosine Transporter (Homo sapiens, UniProt Q99808); experiment: Functional assay; assay type: cell-based
T1 construct: Eurofins
Method: as §1

[7] = design: method as in Atkinson et al. [2024]; details: ref Atkinson et al. [2024]; cited from earlier work

T1 sequence (Q99808 2-456 limits assumed): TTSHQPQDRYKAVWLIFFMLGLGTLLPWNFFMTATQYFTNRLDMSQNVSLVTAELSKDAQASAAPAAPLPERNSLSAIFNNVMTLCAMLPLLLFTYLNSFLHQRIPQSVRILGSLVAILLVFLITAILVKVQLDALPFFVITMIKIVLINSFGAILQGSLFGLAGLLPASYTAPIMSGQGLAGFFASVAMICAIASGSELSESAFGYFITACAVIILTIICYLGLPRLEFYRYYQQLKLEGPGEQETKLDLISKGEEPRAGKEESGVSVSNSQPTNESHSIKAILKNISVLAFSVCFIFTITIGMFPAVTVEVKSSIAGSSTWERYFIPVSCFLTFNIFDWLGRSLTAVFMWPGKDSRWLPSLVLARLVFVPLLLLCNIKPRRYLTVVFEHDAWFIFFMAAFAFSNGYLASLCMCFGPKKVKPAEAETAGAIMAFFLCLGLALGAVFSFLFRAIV

## Cn1cc2cc(-c3cc4[nH]nc(C5CC5)c4n(-c4ccc(OC(F)F)cc4)c3=O)ccc2n1 [AZ’9567]
[1]
  HCT116 cell SDMA pIC50 MTAP KO: 8.6
[2]; 3 mg/kg BID, day 1, mean ± SD
  Free AUC24h: 0.69 ± 0.07 µM·h
  Free Cmax: 0.04 ± 0.004 µM
  Free Cmin24h: 0.01 ± 0.001 µM
[2]; 3 mg/kg BID, day 7, mean ± SD
  Free AUC24h: 0.76 ± 0.11 µM·h
  Free Cmax: 0.05 ± 0.01 µM
  Free Cmin24h: 0.01 ± 0.002 µM
[2]; 10 mg/kg BID, day 1, mean ± SD
  Free AUC24h: 2.6 ± 1.1 µM·h
  Free Cmax: 0.21 ± 0.06 µM
  Free Cmin24h: 0.04 ± 0.02 µM
[2]; 10 mg/kg BID, day 7, mean ± SD
  Free AUC24h: 3.9 ± 0.70 µM·h
  Free Cmax: 0.27 ± 0.11 µM
  Free Cmin24h: 0.08 ± 0.03 µM
[2]; 30 mg/kg BID, day 1, mean ± SD
  Free AUC24h: 12 ± 1.1 µM·h
  Free Cmax: 0.87 ± 0.19 µM
  Free Cmin24h: 0.14 ± 0.04 µM
[2]; 30 mg/kg BID, day 7, mean ± SD
  Free AUC24h: 9.9 ± 2.2 µM·h
  Free Cmax: 0.68 ± 0.19 µM
  Free Cmin24h: 0.15 ± 0.05 µM
[3]
  Brain Methionine % Control: 1835 % Control
  Heart Methionine % Control: 1316 % Control
  Liver Methionine % Control: 2314 % Control
  Plasma Methionine % Control: 1557 % Control
[4]; high dose (30 mg/kg BID)
  differentially expressed liver genes: 1638
[4]; low dose (3 mg/kg BID)
  differentially expressed liver genes: 2080
[5]
  cover of secondary pharmacology targets by plasma free Cmax in rats: none of these targets was covered
[6]
  Pharmacological mode of action: Antagonist
[7]
  brain penetrance Kpu,u: 0.03 ± 0.01
